Data reported in ChEMBL document CHEMBL4334421, “Design, synthesis and biological evaluation of β-peptoid-capped HDAC inhibitors with anti-neuroblastoma and anti-glioblastoma activity” (Medchemcomm, 2019).

How the values were obtained:
CHP-134 = experiment: Antiproliferative activity against human CHP134 cells assessed as reduction in cell viability incubated for 72 hrs by cell-titer Glo assay; format: functional, cell-based; settings: CHP-134, 72 h
G55T2 [1] = experiment: Antiproliferative activity against human G55T2 cells assessed as reduction in cell viability incubated for 72 hrs by WST-8 assay; format: functional, cell-based; settings: G55T2, 72 h
Histone deacetylase 1 = Histone deacetylase 1 (Homo sapiens, UniProt Q13547); experiment: Inhibition of recombinant full length C-terminal FLAG/His-tagged human HDAC1 expressed in baculovirus infected Sf9 cells using Z-Lys(Ac)-AMC as substrate incubated for 90 mins followed by trypsin addition and measured after 30 mins by fluorescence based assay
Chain of Histone deacetylase 1 (Q13547 whole entry): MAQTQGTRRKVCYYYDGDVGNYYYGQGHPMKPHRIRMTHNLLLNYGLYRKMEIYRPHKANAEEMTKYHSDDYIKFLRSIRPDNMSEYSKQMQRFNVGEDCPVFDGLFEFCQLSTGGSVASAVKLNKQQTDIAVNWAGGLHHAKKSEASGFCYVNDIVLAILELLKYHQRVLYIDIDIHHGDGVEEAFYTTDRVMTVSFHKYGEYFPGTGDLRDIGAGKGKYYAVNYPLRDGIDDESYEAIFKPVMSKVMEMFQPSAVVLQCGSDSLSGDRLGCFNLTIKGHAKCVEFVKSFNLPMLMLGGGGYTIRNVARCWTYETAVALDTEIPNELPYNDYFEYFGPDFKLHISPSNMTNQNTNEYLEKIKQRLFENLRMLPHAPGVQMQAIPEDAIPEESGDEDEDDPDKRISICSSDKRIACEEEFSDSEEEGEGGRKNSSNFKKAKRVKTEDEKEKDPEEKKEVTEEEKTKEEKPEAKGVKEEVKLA

SK-N-AS = experiment: Antiproliferative activity against human SK-N-AS cells assessed as reduction in cell viability incubated for 72 hrs by cell-titer Glo assay; format: functional, cell-based
IMR-32 = experiment: Antiproliferative activity against human IMR32 cells assessed as reduction in cell viability incubated for 72 hrs by cell-titer Glo assay; format: functional, cell-based; settings: IMR-32, 72 h
[2] = target: T1, Protein deacetylase HDAC6 (Homo sapiens, UniProt Q9UBN7); experiment: Inhibition of recombinant full length N-terminal GST-tagged human HDAC6 expressed in baculovirus infected Sf9 cells using Z-Lys(Ac)-AMC as substrate incubated for 90 mins followed by trypsin addition and measured after 30 mins by fluorescence based assay
T1 sequence (Q9UBN7 whole entry): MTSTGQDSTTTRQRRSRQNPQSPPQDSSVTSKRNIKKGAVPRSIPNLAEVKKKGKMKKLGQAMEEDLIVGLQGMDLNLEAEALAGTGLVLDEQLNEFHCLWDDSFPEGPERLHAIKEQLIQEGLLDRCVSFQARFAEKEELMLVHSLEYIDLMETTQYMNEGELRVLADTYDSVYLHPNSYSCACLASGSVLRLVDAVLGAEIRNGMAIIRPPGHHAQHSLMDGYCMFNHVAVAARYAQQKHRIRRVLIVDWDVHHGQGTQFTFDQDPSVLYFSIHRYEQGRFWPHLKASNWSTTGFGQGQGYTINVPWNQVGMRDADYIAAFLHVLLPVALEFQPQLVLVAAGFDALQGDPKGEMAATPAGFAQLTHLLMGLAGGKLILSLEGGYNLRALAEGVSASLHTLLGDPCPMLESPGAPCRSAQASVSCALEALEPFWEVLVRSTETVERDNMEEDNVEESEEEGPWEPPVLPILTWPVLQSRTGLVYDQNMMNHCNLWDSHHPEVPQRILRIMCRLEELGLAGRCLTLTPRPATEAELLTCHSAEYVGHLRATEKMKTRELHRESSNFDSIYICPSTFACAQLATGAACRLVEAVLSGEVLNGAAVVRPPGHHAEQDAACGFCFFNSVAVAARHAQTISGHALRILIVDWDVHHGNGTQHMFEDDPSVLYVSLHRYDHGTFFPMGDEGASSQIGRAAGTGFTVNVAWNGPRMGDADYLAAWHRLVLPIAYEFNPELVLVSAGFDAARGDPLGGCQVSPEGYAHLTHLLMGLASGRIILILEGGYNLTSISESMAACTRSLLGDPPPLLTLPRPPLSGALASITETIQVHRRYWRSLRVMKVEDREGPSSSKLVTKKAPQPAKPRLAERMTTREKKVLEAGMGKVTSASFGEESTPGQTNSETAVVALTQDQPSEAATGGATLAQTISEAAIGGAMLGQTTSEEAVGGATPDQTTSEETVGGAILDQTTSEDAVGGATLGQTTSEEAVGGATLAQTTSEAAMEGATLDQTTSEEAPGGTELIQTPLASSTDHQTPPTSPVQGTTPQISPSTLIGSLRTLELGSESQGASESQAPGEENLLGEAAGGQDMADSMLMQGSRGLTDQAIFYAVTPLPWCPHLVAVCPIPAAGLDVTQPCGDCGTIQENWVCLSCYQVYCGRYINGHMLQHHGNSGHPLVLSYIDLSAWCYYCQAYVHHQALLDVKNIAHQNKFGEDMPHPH

NB1 = experiment: Antiproliferative activity against human NB-1 cells assessed as reduction in cell viability incubated for 72 hrs by cell-titer Glo assay; format: functional, cell-based; settings: NB1, 72 h
G55T2 [3] = experiment: Cell cycle arrest in human G55T2 cells assessed as accumulation in subG0 phase at 3 uM incubated for 72 hrs by propidium iodide based flow cytometry (reference value: 4.5 %); format: functional
G55T2 [4] = experiment: Cell cycle arrest in human G55T2 cells assessed as accumulation in G2/M phase at 3 uM incubated for 72 hrs by propidium iodide based flow cytometry (reference value: 26.8 %); format: functional
G55T2 [5] = experiment: Cell cycle arrest in human G55T2 cells assessed as accumulation in S phase at 3 uM incubated for 72 hrs by propidium iodide based flow cytometry (reference value: 14.7 %); format: functional
G55T2 [6] = experiment: Cell cycle arrest in human G55T2 cells assessed as accumulation in G0/G1 phase at 3 uM incubated for 72 hrs by propidium iodide based flow cytometry (reference value: 49.9 %); format: functional
G55T2 [7] = experiment: Cell cycle arrest in human G55T2 cells assessed as accumulation in S phase at 1 uM incubated for 72 hrs by propidium iodide based flow cytometry (reference value: 14.7 %); format: functional
G55T2 [8] = experiment: Cell cycle arrest in human G55T2 cells assessed as accumulation in G2/M phase at 1 uM incubated for 72 hrs by propidium iodide based flow cytometry (reference value: 26.8 %); format: functional
G55T2 [9] = experiment: Cell cycle arrest in human G55T2 cells assessed as accumulation in G0/G1 phase at 1 uM incubated for 72 hrs by propidium iodide based flow cytometry (reference value: 49.9 %); format: functional
G55T2 [10] = experiment: Cell cycle arrest in human G55T2 cells assessed as accumulation in subG0 phase at 1 uM incubated for 72 hrs by propidium iodide based flow cytometry (reference value: 4.5 %); format: functional

SMILES: CN(C)c1ccc(C(=O)N(CCC(=O)NCc2ccc(Cl)cc2)Cc2ccc(C(=O)NO)cc2)cc1
- IC50 (CHP-134): 610 nM
- IC50 (G55T2 [1]): 460 nM
- IC50 (Histone deacetylase 1): 21.2 nM
- IC50 (SK-N-AS): 390 nM
- IC50 (IMR-32): 310 nM
- IC50 [2]: 10 nM
- IC50 (NB1): 850 nM

SMILES: Cc1ccc(NC(=O)CCN(Cc2ccc(C(=O)NO)cc2)C(=O)c2ccc(N(C)C)cc2)cc1
- IC50 (CHP-134): 540 nM
- IC50 (G55T2 [1]): 330 nM
- IC50 (Histone deacetylase 1): 12.9 nM
- IC50 (SK-N-AS): 400 nM
- IC50 (IMR-32): 300 nM
- IC50 [2]: 19.5 nM
- IC50 (NB1): 660 nM

SMILES: Cc1ccc(CNC(=O)CCN(Cc2ccc(C(=O)NO)cc2)C(=O)c2ccc(N(C)C)cc2)cc1
- IC50 (CHP-134): 420 nM
- IC50 (G55T2 [1]): 430 nM
- IC50 (Histone deacetylase 1): 27.8 nM
- IC50 (SK-N-AS): 340 nM
- IC50 (IMR-32): 260 nM
- IC50 [2]: 14.4 nM
- IC50 (NB1): 700 nM

SMILES: Cc1ccc(NC(=O)CCN(Cc2ccc(C(=O)NO)cc2)C(=O)c2ccccc2)cc1
- IC50 (CHP-134): 1160 nM
- IC50 (G55T2 [1]): 540 nM
- IC50 (Histone deacetylase 1): 27.5 nM
- IC50 (SK-N-AS): 620 nM
- IC50 (IMR-32): 550 nM
- IC50 [2]: 10.7 nM
- IC50 (NB1): 1480 nM

SMILES: Cc1cc(C)cc(C(=O)N(CCC(=O)NCc2ccccc2)Cc2ccc(C(=O)NO)cc2)c1
- IC50 (CHP-134): 2030 nM
- IC50 (G55T2 [1]): 4250 nM
- IC50 (Histone deacetylase 1): 128 nM
- IC50 (SK-N-AS): 1860 nM
- IC50 (IMR-32): 1390 nM
- IC50 [2]: 20.5 nM
- IC50 (NB1): 3870 nM

SMILES: CN(C)c1ccc(C(=O)N(CCC(=O)NCc2ccccc2)Cc2ccc(C(=O)NO)cc2)cc1
- IC50 (CHP-134): 1160 nM
- IC50 (G55T2 [1]): 1150 nM
- IC50 (Histone deacetylase 1): 14.7 nM
- IC50 (SK-N-AS): 1420 nM
- IC50 (IMR-32): 840 nM
- IC50 [2]: 14.8 nM
- IC50 (NB1): 1720 nM

SMILES: O=C(CCCCCCC(=O)Nc1ccccc1)NO [VORINOSTAT]
- Activity (G55T2 [3]): 24.8%
- Activity (G55T2 [4]): 28.9%
- Activity (G55T2 [5]): 8.1%
- Activity (G55T2 [6]): 31.3%

SMILES: Cc1ccc(C(=O)N(CCC(=O)NCc2ccccc2)Cc2ccc(C(=O)NO)cc2)cc1
- IC50 (CHP-134): 1100 nM
- IC50 (G55T2 [1]): 690 nM
- IC50 (Histone deacetylase 1): 16.1 nM
- IC50 (SK-N-AS): 910 nM
- IC50 (IMR-32): 630 nM
- IC50 [2]: 16.7 nM
- IC50 (NB1): 1610 nM

SMILES: COc1cc(OC)cc(C(=O)N(CCC(=O)NCc2ccccc2)Cc2ccc(C(=O)NO)cc2)c1
- IC50 (CHP-134): 12300 nM
- IC50 (G55T2 [1]): 14700 nM
- IC50 (Histone deacetylase 1): 147 nM
- IC50 (SK-N-AS): 9470 nM
- IC50 (IMR-32): 6040 nM
- IC50 [2]: 26 nM
- IC50 (NB1): 13300 nM

SMILES: Cc1ccc(NC(=O)CCN(Cc2ccc(C(=O)NO)cc2)C(=O)c2cc(C)cc(C)c2)cc1
- IC50 (CHP-134): 380 nM
- Activity (G55T2 [3]): 23.3%
- Activity (G55T2 [7]): 13.2%
- IC50 (G55T2 [1]): 370 nM
- IC50 (Histone deacetylase 1): 43 nM
- IC50 (SK-N-AS): 220 nM
- IC50 (IMR-32): 210 nM
- Activity (G55T2 [8]): 29.1%
- Activity (G55T2 [9]): 52.3%
- Activity (G55T2 [4]): 31.1%
- Activity (G55T2 [10]): 3.5%
- IC50 [2]: 31.1 nM
- IC50 (NB1): 670 nM
- Activity (G55T2 [5]): 9.8%
- Activity (G55T2 [6]): 30.2%

SMILES: O=C(NO)c1ccc(CC(=O)N(CCO)c2ccccc2)cc1
- IC50 (Histone deacetylase 1): 2100 nM

SMILES: COc1ccc(C(=O)N(CCC(=O)NCc2ccccc2)Cc2ccc(C(=O)NO)cc2)cc1
- IC50 (CHP-134): 1900 nM
- IC50 (G55T2 [1]): 3490 nM
- IC50 (Histone deacetylase 1): 41.9 nM
- IC50 (SK-N-AS): 1740 nM
- IC50 (IMR-32): 1090 nM
- IC50 [2]: 25.3 nM
- IC50 (NB1): 2520 nM

SMILES: O=C(CCN(Cc1ccc(C(=O)NO)cc1)C(=O)c1ccccc1)NCc1ccccc1
- IC50 (CHP-134): 4680 nM
- IC50 (G55T2 [1]): 5940 nM
- IC50 (Histone deacetylase 1): 134 nM
- IC50 (SK-N-AS): 3310 nM
- IC50 (IMR-32): 2360 nM
- IC50 [2]: 12.5 nM
- IC50 (NB1): 6660 nM
